Source: US10393748B2, “Method for predicting efficacy of c-Met inhibitor” (Samsung Electronics Co., Ltd., priority 2014, dated 2019)

Experiments:
Assay type in all cases: cell-based, human
Hs746T = experiment: Cell proliferation, Cell-Titer Glo (CTG) assay, Hs746T; settings: inhibitor concentration of 10 nM or more, 72 hours
Method: (§1) The 4 cell lines were seeded on a 96 well plate at the same amount (1×10^4 cells/well) and cultured for 24 hours (media: RPMI (Gibco, Invitrogen), culture conditions: 37° C., 5% CO2). The cultured cells were treated with representative c-Met inhibitor, crizotinib (Selleck chemical) and PHA665752((R,Z)-5-(2,6-dichlorobenzylsulfonyl)-3-((3,5-dimethyl-4-(2-(pyrrolidin-1-ylmethyl)pyrrolidine-1-carbonyl)-1H-pyrrol-2-yl)methylene)indolin-2-one), respectively. For comparison, human control IgG (chrompure human IgG (009-000-003, JACKSON IMMUNORESEARCH LABS INC.)) as a control and anti-c-Met antibody L3-1Y/IgG2 (Reference Example) were used respectively. Each of the inhibitors (or antibody) was treated at 10-fold serial diluted concentrations from 1000 nM to 0.01 nM. 72 hours after the treatment, the level of IL-8 in cell culture of each treatment group was assayed by Cytometric Bead Array (CBA) method using BD Cytometric Bead Array kit (see Example 1.1.2). In addition, in order to verify the anticancer efficacy of the c-Met inhibitors, the cell proliferation (%) was measured at 72 hours after c-Met inhibitor treatment through Cell-Titer Glo (CTG) assay.

EBC-1 = experiment: Cell proliferation, Cell-Titer Glo (CTG) assay, EBC-1; settings: inhibitor concentration of 10 nM or more, 72 hours
Method: as §1

HT29 = experiment: Cell proliferation, Cell-Titer Glo (CTG) assay, HT29; settings: 0.01 to 1000 nM, 72 hours
Method: as §1

Lovo = experiment: Cell proliferation, Cell-Titer Glo (CTG) assay, Lovo; settings: 0.01 to 1000 nM, 72 hours
Method: as §1

SMILES | cell proliferation (%) (Hs746T) | cell proliferation (%) (EBC-1) | cell proliferation (%) (HT29) | cell proliferation (%) (Lovo)
C[C@@H](Oc1cc(-c2cnn(C3CCNCC3)c2)cnc1N)c1c(Cl)ccc(F)c1Cl [crizotinib, 3-((R)-1-(2,6-dichloro-3-fluorophenyl)ethoxy)-5-(1-(piperidin-4-yl)-1H-pyrazol-4-yl)pyridin-2-amine] | significantly inhibited | significantly inhibited | no significant decrease | no significant decrease
Cc1[nH]c(/C=C2\C(=O)Nc3ccc(S(=O)(=O)Cc4c(Cl)cccc4Cl)cc32)c(C)c1C(=O)N1CCC[C@@H]1CN1CCCC1 [PHA665752, (R,Z)-5-(2,6-dichlorobenzylsulfonyl)-3-((3,5-dimethyl-4-(2-(pyrrolidin-1-ylmethyl)pyrrolidine-1-carbonyl)-1H-pyrrol-2-yl)methylene)indolin-2-one] | significantly inhibited | significantly inhibited | no significant decrease | no significant decrease
